One may read the IC50 as the point on the concentration scale where inhibition reaches its midpoint.

Here are results for nine compounds from ChEMBL document CHEMBL4145588, “2,7-Diazaspiro[4,4]nonanes for the Treatment or Prevention of Cancers and Diabetes” (ACS Med Chem Lett, 2018).

This test deals with T1, Menin (Homo sapiens, UniProt O00255).
T1 sequence (O00255 whole entry): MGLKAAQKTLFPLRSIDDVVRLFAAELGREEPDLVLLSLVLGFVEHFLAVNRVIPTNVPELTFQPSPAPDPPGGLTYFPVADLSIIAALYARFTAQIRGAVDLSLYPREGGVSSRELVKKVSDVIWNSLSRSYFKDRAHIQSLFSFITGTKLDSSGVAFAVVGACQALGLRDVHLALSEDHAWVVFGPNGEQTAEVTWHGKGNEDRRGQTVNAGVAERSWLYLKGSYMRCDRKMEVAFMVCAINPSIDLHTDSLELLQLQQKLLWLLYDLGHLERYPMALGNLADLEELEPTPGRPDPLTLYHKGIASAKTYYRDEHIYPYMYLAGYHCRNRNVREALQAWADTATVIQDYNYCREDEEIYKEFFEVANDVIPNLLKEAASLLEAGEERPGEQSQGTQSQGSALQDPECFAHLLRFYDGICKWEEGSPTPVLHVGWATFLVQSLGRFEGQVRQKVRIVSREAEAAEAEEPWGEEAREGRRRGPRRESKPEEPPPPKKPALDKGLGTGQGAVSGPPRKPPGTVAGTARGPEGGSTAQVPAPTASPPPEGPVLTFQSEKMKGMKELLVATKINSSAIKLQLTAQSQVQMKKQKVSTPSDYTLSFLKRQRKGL
Briefly: Inhibition of biotinylated MLL-1 derived biotinylated Btn-PEG2- PEG2-S-Nva-RWRFPARPGTT-Amide binding to recombinant full length N-terminal His-tagged menin (unknown origin) expressed in Escherichia coli incubated for 10 mins by TR-FRET assay. Background: In TR-FRET formats the signal depends on donor and acceptor labels being close together.
Consider `NS(=O)(=O)Cc1ccc(CN2CCC3(CCN(c4ncnc5cc(CC(F)(F)F)sc45)C3)C2)cc1` (centres undefined), for which the 50% inhibitory concentration (IC50) is 10 nM.

For the compound `O=S(=O)(Cc1ccc(CN2CCC3(CCN(c4ncnc5sc(CC(F)(F)F)cc45)C3)C2)cc1)NCCO` (centres undefined), the 50% inhibitory concentration (IC50) is 10 nM.

For `NS(=O)(=O)Cc1ccc(CN2CCC3(CCN(c4ncnc5sc(CC(F)(F)F)cc45)C3)C2)cc1` (centres undefined), the IC50 amounted to 4 nM.

For the compound `C=CC(=O)Nc1ccc(CN2CCC3(CCN(c4ncnc5sc(CC(F)(F)F)cc45)C3)C2)cc1` (centres undefined), the IC50 came to 10 nM.

Take `FC(F)Cc1cc2c(N3CCC4(CCN(Cc5ccc(N6CCOCC6)cc5)C4)C3)ncnc2s1` (centres undefined): the IC50 turned out to be 10 nM.

As for `CN(CCO)c1ccc(CN2CCC3(CCN(c4ncnc5sc(CC(F)(F)F)cc45)C3)C2)cc1` (centres undefined), the IC50 was determined as 10 nM.

For `N#CCc1ccc(CN2CCC3(CCN(c4ncnc5sc(CC(F)(F)F)cc45)C3)C2)cc1` (centres undefined), the half-inhibitory concentration (IC50) was 20 nM.

Take `CC(C)(C#N)c1ccc(CN2CCC3(CCN(c4ncnc5sc(CC(F)(F)F)cc45)C3)C2)cc1` (centres undefined): the IC50 was 20 nM.

Consider `CC(c1ccc(CN2CCC3(CCN(c4ncnc5sc(CC(F)(F)F)cc45)C3)C2)cc1)S(N)(=O)=O` (centres undefined), for which the half-maximal inhibitory concentration (IC50) came to 10 nM.
